Assay results reported in BigSolDB 2.1.

C=CC(=O)NC(C)(C)C
Details	solubility (mole fraction)
in DMAc, 293.15 K	0.0814
in DMAc, 298.15 K	0.0897
in DMAc, 303.15 K	0.0979
in DMAc, 308.15 K	0.11
in DMAc, 313.15 K	0.127
in DMAc, 318.15 K	0.146
in DMAc, 323.15 K	0.172
in DMAc, 328.15 K	0.203
in DMAc, 333.15 K	0.236
in DMAc, 338.15 K	0.274
in DMAc, 343.15 K	0.317
in DMAc, 348.15 K	0.364
in DMAc, 353.15 K	0.43
in DMF, 288.15 K	0.0207
in DMF, 293.15 K	0.0237
in DMF, 298.15 K	0.0283
in DMF, 303.15 K	0.0333
in DMF, 308.15 K	0.0403
in DMF, 313.15 K	0.0463
in DMF, 318.15 K	0.0529
in DMF, 323.15 K	0.0599
in DMF, 328.15 K	0.0709
in DMF, 333.15 K	0.0833
in DMF, 338.15 K	0.0987
in DMF, 343.15 K	0.117
in DMF, 348.15 K	0.138
in DMF, 353.15 K	0.166
in dichloromethane, 279.15 K	0.00541
in dichloromethane, 283.15 K	0.0065
in dichloromethane, 285.15 K	0.0072
in dichloromethane, 287.15 K	0.00798
in dichloromethane, 289.15 K	0.00889
in dichloromethane, 291.15 K	0.00962
in dichloromethane, 293.15 K	0.0106
in dichloromethane, 296.15 K	0.0117
in dichloromethane, 298.15 K	0.0128
in dichloromethane, 301.15 K	0.0142
in dichloromethane, 304.15 K	0.016
in ethanol, 284.95 K	0.00136
in ethanol, 287.95 K	0.00152
in ethanol, 291.15 K	0.0017
in ethanol, 294.15 K	0.0021
in ethanol, 297.15 K	0.0024
in ethanol, 300.15 K	0.00283
in ethanol, 304.15 K	0.00344
in ethanol, 307.15 K	0.00392
in ethanol, 310.15 K	0.00463
in ethanol, 313.15 K	0.00522
in ethanol, 316.15 K	0.00598
in ethanol, 319.15 K	0.00677
in ethanol, 324.15 K	0.00864
in ethanol, 330.15 K	0.0113
in ethanol, 335.15 K	0.0142
in ethyl acetate, 287.15 K	0.015
in ethyl acetate, 290.15 K	0.0155
in ethyl acetate, 293.15 K	0.0166
in ethyl acetate, 296.15 K	0.0178
in ethyl acetate, 299.15 K	0.0188
in ethyl acetate, 302.15 K	0.0204
in ethyl acetate, 305.15 K	0.0225
in ethyl acetate, 310.15 K	0.0256
in ethyl acetate, 315.15 K	0.0289
in ethyl acetate, 320.15 K	0.0327
in ethyl acetate, 325.15 K	0.0363
in ethyl acetate, 330.15 K	0.0406
in ethyl acetate, 335.15 K	0.045
in ethyl acetate, 340.15 K	0.0506
in formamide, 284.15 K	0.00078
in formamide, 288.15 K	0.000929
in formamide, 294.15 K	0.00117
in formamide, 305.15 K	0.00199
in formamide, 308.15 K	0.00229
in formamide, 312.15 K	0.00277
in formamide, 316.15 K	0.00348
in formamide, 320.15 K	0.0043
in formamide, 324.15 K	0.00512
in formamide, 329.15 K	0.00639
in formamide, 334.15 K	0.00776
in formamide, 340.15 K	0.00994
in formamide, 345.15 K	0.0122
in formamide, 350.15 K	0.015
in water, 294.15 K	0.000895
in water, 298.15 K	0.000994
in water, 303.15 K	0.00111
in water, 308.15 K	0.00122
in water, 313.15 K	0.00136
in water, 318.15 K	0.00153
in water, 323.15 K	0.00172
in water, 328.15 K	0.00192
in water, 333.15 K	0.00215
in water, 338.15 K	0.0024
in water, 343.15 K	0.00267
in water, 348.15 K	0.00297
in water, 353.15 K	0.00338
